Results taken from publication PMC7979765, “trans-Translation inhibitors bind to a novel site on the ribosome and clear Neisseria gonorrhoeae in vivo” (Nature Communications, 2021).
In brackets after ≈: the same amount, converted by molar mass. Several values for one entry are separate records, joined by “and”; a condition that tells them apart may be missing. Equal entries are not always repeated. Entries after “also recorded” stand apart in the source; their conditions may differ. Where two headings read alike, the source gives them in different places.

How the values were obtained:
[1] = biological target: T1, Serotonin (5-hydroxytryptamine) 5-HT1A (Homo sapiens, UniProt P08908); assay: Receptor Profiling 271110; type: binding
T1 construct: purchased Eurofins Discovery Services (Panlabs safety panel)
T1 sequence (P08908 whole entry): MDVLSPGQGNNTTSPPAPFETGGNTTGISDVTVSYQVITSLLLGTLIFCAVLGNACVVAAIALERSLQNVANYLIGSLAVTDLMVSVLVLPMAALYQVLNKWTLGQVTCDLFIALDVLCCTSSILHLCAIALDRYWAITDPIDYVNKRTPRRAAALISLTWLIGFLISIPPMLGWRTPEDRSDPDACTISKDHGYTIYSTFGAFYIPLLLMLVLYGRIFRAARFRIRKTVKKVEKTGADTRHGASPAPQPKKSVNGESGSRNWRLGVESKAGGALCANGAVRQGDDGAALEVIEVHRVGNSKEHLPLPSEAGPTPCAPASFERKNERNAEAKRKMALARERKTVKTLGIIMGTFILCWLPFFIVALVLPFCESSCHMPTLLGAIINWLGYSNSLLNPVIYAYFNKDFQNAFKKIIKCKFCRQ
Method: (§1) Several in vitro selectivity assays were performed at Eurofins Discovery Services using established methods and controls that behaved as expected (Supplementary Tables 5 and 6). […] For receptor panel profiling, MBX-4132 was evaluated at 10 μM and activity of >50% (agonist or antagonist; note that negative % inhibition indicates agonism) was scored as active.

[2] = biological target: T2, Dopamine D1 (Homo sapiens, UniProt P21728); assay: Receptor Profiling 219500; type: binding
T2 construct: purchased Eurofins Discovery Services (Panlabs safety panel)
T2 sequence (P21728 whole entry): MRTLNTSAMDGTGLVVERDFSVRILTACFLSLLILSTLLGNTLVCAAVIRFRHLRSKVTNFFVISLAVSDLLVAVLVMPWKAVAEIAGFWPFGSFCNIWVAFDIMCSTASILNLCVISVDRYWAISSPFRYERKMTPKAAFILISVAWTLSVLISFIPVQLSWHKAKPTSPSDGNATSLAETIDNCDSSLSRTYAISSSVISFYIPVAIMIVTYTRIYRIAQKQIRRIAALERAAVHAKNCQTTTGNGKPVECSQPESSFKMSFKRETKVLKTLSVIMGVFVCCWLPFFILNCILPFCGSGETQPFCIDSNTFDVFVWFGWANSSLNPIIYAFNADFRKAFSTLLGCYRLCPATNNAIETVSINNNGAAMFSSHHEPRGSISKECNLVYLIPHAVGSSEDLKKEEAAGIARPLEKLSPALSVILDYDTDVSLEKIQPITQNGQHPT
Method: as §1

[3] = system: N. gonorrhoeae strain H041; assay: In vivo efficacy in the gonorrhea mouse model; conditions: for mouse cfu: individual mice, 2.00E+01 = no CFU/mL recovered, limit of detection
[4] = Serum protein binding, human; type: in vitro ADME; conditions: read-out: Serum binding (% bound) Human (converted)
Method: Serum protein binding was determined using an equilibrium dialysis method as described. The amount of compound in each chamber (buffer and serum) was measured using methods for reverse-phase liquid chromatography/mass spectroscopy methods that were customized for each compound.

[5] = system: Streptococcus pneumoniae; assay: MIC, microbroth dilution; type: cell-based
[6] = system: Salmonella typhimurium strains TA98 and TA100; type: cell-based
Method: The Ames assay was performed at SRI Biosciences, following the standard protocols established there[55]–[57]. In brief, samples were evaluated for their ability to induce genetic damage using the plate incorporation method with Salmonella typhimurium strains TA98 and TA100 with and without a metabolic activation mixture containing 10% Aroclar-1254-induced rat-liver microsomes (S9). MBX-4132 was tested from a 5 mg/mL DMSO stock solution (the solubility limit), which provided plate concentrations up to 500 µg/plate, with serial dilutions accessing doses as low as 5 µg/plate. MBX-4132 precipitated at the two highest dose levels (500 and 100 µg/plate), but at 50 µg/plate, no precipitation was observed. […] Test articles were considered mutagenic when the mean number of revertant colonies increased in a dose-dependent manner. Some cytotoxicity was observed, but sufficient colonies were formed to allow analysis. […] Data for 2-nitrofluorene and sodium azide (positive controls) and DMSO (negative control) were included for reference.

[7] = biological target: T3, Protein Tyrosine Kinase, LCK (Homo sapiens, UniProt P06239); assay: Receptor Profiling 176020; type: biochemical
T3 construct: purchased Eurofins Discovery Services (Panlabs safety panel)
T3 sequence (P06239 whole entry): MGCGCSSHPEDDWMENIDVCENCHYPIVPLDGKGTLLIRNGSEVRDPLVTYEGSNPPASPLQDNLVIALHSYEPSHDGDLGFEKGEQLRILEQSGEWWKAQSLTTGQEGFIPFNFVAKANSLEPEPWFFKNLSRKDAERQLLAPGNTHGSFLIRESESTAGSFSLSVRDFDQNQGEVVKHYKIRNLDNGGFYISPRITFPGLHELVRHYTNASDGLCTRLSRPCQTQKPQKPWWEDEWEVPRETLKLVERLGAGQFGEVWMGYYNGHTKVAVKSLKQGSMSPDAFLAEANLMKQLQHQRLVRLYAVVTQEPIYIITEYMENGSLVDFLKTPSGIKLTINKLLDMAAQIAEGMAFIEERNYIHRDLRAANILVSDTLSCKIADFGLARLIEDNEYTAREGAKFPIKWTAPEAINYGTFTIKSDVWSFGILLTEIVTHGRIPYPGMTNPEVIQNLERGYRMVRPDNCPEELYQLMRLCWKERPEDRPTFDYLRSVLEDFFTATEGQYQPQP
Method: as §1

[8] = system: GABAA, Flunitrazepam, Central; assay: Receptor Profiling 226600; type: binding, rat; conditions: 10 μM
Method: as §1

[9] = system: translation; assay: In vitro translation assay (full-length nano-luciferase gene); type: biochemical, Escherichia coli; conditions: for % of translation activity: 0 uM = 100
[10] = biological target: T4, Serotonin (5-hydroxytryptamine) 5-HT3 (Homo sapiens, UniProt P46098); assay: Receptor Profiling 271910; type: binding
T4 construct: Eurofins Discovery Services (contract assay) 271910
T4 sequence (P46098 24-478): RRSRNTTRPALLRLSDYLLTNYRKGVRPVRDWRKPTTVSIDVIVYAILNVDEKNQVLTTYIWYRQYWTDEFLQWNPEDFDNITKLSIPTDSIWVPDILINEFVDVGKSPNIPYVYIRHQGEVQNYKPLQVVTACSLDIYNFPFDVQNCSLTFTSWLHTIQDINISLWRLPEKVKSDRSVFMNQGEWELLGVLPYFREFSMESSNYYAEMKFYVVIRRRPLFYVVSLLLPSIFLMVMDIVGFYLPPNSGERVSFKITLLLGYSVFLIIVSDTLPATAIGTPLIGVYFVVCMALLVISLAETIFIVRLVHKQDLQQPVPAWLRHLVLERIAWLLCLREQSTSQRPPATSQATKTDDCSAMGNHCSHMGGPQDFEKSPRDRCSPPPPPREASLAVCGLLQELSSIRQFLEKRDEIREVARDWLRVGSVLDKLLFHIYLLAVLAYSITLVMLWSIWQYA
Method: as §1

[11] = system: CYP450 enzymes; assay: CYP450 inhibition assays (panel statement); type: in vitro ADME, human; conditions: 5 concentrations from 30 nM to 100 μM
Method: as §1

[12] = biological target: T5, Muscarinic M1 (Homo sapiens, UniProt P11229); assay: Receptor Profiling 252610; type: binding
T5 construct: purchased Eurofins Discovery Services (Panlabs safety panel)
T5 sequence (P11229 whole entry): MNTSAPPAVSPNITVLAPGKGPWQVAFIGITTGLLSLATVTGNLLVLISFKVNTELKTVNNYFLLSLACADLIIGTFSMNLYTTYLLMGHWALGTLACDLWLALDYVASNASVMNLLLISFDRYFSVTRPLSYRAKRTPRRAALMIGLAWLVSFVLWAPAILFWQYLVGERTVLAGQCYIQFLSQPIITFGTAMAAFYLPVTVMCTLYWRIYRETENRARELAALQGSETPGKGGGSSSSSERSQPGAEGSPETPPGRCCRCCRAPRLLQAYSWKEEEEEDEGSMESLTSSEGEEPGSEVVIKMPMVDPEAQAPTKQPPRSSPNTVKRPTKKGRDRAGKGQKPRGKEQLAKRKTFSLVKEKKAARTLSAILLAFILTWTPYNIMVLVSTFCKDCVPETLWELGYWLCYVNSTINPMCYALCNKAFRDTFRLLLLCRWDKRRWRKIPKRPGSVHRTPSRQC
Method: as §1

[13] = biological target: T6, Phosphodiesterase PDE3A (Homo sapiens, UniProt Q14432); assay: Receptor Profiling 152300; type: biochemical
T6 construct: Eurofins Discovery Services (contract assay) 152300
T6 sequence (Q14432 whole entry): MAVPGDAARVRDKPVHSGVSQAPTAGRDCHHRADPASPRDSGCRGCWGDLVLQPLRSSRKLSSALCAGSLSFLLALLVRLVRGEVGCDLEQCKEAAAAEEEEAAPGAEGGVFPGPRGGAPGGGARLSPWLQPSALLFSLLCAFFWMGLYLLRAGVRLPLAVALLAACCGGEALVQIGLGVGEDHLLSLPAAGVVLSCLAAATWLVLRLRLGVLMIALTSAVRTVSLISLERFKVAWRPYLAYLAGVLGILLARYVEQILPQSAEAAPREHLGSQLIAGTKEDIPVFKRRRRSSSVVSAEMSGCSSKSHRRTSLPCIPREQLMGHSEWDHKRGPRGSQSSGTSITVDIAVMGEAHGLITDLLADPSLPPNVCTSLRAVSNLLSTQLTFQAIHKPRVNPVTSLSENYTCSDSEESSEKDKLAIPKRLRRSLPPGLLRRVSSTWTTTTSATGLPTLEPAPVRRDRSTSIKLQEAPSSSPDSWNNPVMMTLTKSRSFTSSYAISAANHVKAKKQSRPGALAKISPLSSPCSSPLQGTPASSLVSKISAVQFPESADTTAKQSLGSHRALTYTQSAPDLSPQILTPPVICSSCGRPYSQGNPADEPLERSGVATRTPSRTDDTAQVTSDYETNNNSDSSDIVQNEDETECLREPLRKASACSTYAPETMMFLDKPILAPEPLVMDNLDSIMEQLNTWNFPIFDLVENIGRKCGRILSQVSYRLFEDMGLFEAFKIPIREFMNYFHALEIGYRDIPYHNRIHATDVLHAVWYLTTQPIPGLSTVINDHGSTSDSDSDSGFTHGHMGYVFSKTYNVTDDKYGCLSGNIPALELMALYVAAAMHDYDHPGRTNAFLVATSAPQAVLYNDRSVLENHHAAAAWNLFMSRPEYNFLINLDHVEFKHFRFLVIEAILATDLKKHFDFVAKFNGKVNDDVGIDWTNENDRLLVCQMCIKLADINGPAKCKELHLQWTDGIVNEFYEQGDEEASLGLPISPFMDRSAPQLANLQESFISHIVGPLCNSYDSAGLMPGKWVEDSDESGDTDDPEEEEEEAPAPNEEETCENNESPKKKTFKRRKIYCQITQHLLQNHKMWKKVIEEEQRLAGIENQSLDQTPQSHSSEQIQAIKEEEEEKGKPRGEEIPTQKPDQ
Method: as §1

[14] = biological target: T7, Adrenergic α2A (Homo sapiens, UniProt P08913); assay: Receptor Profiling 203630; type: binding
T7 construct: purchased Eurofins Discovery Services (Panlabs safety panel)
T7 sequence (P08913 whole entry): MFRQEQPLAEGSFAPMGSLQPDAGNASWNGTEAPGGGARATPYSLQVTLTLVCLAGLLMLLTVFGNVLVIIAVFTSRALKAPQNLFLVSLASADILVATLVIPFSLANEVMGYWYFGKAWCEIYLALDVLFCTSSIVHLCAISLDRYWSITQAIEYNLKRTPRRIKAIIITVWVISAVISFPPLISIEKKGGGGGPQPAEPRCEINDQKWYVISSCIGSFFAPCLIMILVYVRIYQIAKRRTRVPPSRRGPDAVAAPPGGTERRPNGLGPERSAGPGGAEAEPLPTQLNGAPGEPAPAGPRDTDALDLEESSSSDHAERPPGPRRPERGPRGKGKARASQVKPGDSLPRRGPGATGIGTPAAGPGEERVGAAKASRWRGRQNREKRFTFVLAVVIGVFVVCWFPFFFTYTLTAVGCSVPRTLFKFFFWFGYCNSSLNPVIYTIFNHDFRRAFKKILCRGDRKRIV
Method: as §1

[15] = system: Sodium Channel, Site 2; assay: Receptor Profiling 279510; type: binding, rat; conditions: 10 μM
Method: as §1

Structure (SMILES): O=C(Nc1nnc(-c2ccc(F)cc2)o1)N1CCc2ccccc2C1 [MBX-4132]
- inhibition at 10 µM [1]: 30%
- inhibition at 10 µM [2]: 26%
- mouse cfu ([3]; Day 5, MBX-4132 10 MPK, 10 mg/kg): 2.00E+01 CFU/mL (14×) and 4.20E+02 CFU/mL and 2.61E+03 CFU/mL and 2.38E+03 CFU/mL and 3.50E+05 CFU/mL and 1.00E+06 CFU/mL and 2.60E+02 CFU/mL
- mouse cfu ([3]; Day 6, MBX-4132 10 MPK, 10 mg/kg): 2.00E+01 CFU/mL (16×) and 1.46E+03 CFU/mL and 2.08E+04 CFU/mL and 3.12E+05 CFU/mL and 7.20E+02 CFU/mL
- mouse cfu ([3]; Day 7, MBX-4132 10 MPK, 10 mg/kg): 2.00E+01 CFU/mL (18×) and 1.01E+04 CFU/mL and 1.16E+04 CFU/mL
- mouse cfu ([3]; Day 8, MBX-4132 10 MPK, 10 mg/kg): 2.00E+01 CFU/mL (18×) and 2.20E+02 CFU/mL and 7.00E+02 CFU/mL
- mouse cfu ([3]; Day -1, MBX-4132 10 MPK, 10 mg/kg): 2.16E+06 CFU/mL and 4.97E+06 CFU/mL and 1.86E+05 CFU/mL and 1.04E+06 CFU/mL and 6.26E+06 CFU/mL and 2.02E+05 CFU/mL and 3.50E+04 CFU/mL and 5.46E+03 CFU/mL and 1.66E+05 CFU/mL and 6.46E+05 CFU/mL and 2.23E+05 CFU/mL and 2.90E+05 CFU/mL and 2.17E+05 CFU/mL and 6.58E+03 CFU/mL and 2.34E+06 CFU/mL and 3.20E+02 CFU/mL and 3.63E+06 CFU/mL and 4.88E+05 CFU/mL and 3.45E+06 CFU/mL and 2.43E+06 CFU/mL
- mice cleared per day: cleared flag ([3]; MBX-4132 10 MPK, individual mice 1-20, 1 = cleared on the day, 0 = not cleared, 10 mg/kg): 1 and 0
- Day (mice cleared per day: day on which the mouse was cleared) ([3]; MBX-4132 10 MPK, individual mice 1-20, Day 8 with flag 0 = not cleared, 10 mg/kg): 3 and 8 and 6 and 5 and 1 and 4 and 2
- mice completely cleared of infection ([3]; single oral dose 10 mg/kg, by 6 days, N. gonorrhoeae H041): 80%
- fraction unbound ([4]; Average Value, Eurofins): 0.009
- fraction unbound ([4]; Replicate 1/2, Eurofins): 0.017 and 0.002
- fraction unbound ([4]; Reported value, Eurofins): 0.01
- MIC ([5]; Streptococcus pneumoniae ATCC 49619, replicates): 34 µg/mL (≈ 100 µM)
- MIC ([5]; Streptococcus pneumoniae, ATCC49619, strain ATCC 49619, read-out: MIC): 34 µg/mL (≈ 100 µM)
- Average Mean Revertants/plate ([6]; TA98, 1 µg/plate, + S9): 23.5 Revertants/plate
- Average Mean Revertants/plate ([6]; TA98, 1 µg/plate, no S9): 21.5 Revertants/plate
- Mean Revertants/plate ([6]; TA98, 1 µg/plate, no S9, replicates): 23 Revertants/plate and 20 Revertants/plate
- Average Mean Revertants/plate ([6]; TA98, 5 µg/plate, + S9): 22 Revertants/plate
- Average Mean Revertants/plate ([6]; TA98, 5 µg/plate, no S9): 17.0 Revertants/plate
- Mean Revertants/plate ([6]; TA98, 5 µg/plate, no S9, replicates): 18 Revertants/plate and 16 Revertants/plate
- Average Mean Revertants/plate ([6]; TA98, 10 µg/plate, + S9): 21 Revertants/plate
- Average Mean Revertants/plate ([6]; TA98, 10 µg/plate, no S9): 15.0 Revertants/plate
- Mean Revertants/plate ([6]; TA98, 10 µg/plate, no S9, replicates): 14 Revertants/plate and 16 Revertants/plate
- Average Mean Revertants/plate ([6]; TA98, 50 µg/plate, + S9): 18.5 Revertants/plate
- Average Mean Revertants/plate ([6]; TA98, 50 µg/plate, no S9): 20.0 Revertants/plate
- Mean Revertants/plate ([6]; TA98, 50 µg/plate, no S9, replicates): 18 Revertants/plate and 22 Revertants/plate
- Average Mean Revertants/plate ([6]; TA98, 100 µg/plate, + S9): 17.5 Revertants/plate
- Average Mean Revertants/plate ([6]; TA98, 100 µg/plate, no S9): 20.0 Revertants/plate
- Mean Revertants/plate ([6]; TA98, 100 µg/plate, no S9, replicates): 18 Revertants/plate and 22 Revertants/plate
- Average Mean Revertants/plate ([6]; TA98, 500 µg/plate, + S9): 20 Revertants/plate
- Average Mean Revertants/plate ([6]; TA98, 500 µg/plate, no S9): 17.5 Revertants/plate
- Mean Revertants/plate ([6]; TA98, 500 µg/plate, no S9, replicates): 19 Revertants/plate and 16 Revertants/plate
- Mean Revertants/plate ([6]; TA98, + S9, 1 µg/plate): 23.5
- Mean Revertants/plate ([6]; TA98, + S9, 5 µg/plate): 22.0
- Mean Revertants/plate ([6]; TA98, + S9, 10 µg/plate): 21.0
- Mean Revertants/plate ([6]; TA98, + S9, 50 µg/plate): 18.5
- Mean Revertants/plate ([6]; TA98, + S9, 100 µg/plate): 17.5
- Mean Revertants/plate ([6]; TA98, + S9, 500 µg/plate): 20.0
- Mean Revertants/plate ([6]; TA98, without S9, 1 µg/plate): 21.5
- Mean Revertants/plate ([6]; TA98, without S9, 5 µg/plate): 17.0
- Mean Revertants/plate ([6]; TA98, without S9, 10 µg/plate): 15.0
- Mean Revertants/plate ([6]; TA98, without S9, 50 µg/plate): 20.0
- Mean Revertants/plate ([6]; TA98, without S9, 100 µg/plate): 20.0
- Mean Revertants/plate ([6]; TA98, without S9, 500 µg/plate): 17.5
- revertant colonies vs DMSO control (in words) ([6]; TA98 and TA100, with and without S9, any concentration tested): no significant deviation
- Average Mean Revertants/plate ([6]; TA100, 1 µg/plate, + S9): 107.5 Revertants/plate
- Average Mean Revertants/plate ([6]; TA100, 1 µg/plate, no S9): 112.5 Revertants/plate
- Mean Revertants/plate ([6]; TA100, 1 µg/plate, no S9, replicates): 108 Revertants/plate and 117 Revertants/plate
- Average Mean Revertants/plate ([6]; TA100, 5 µg/plate, + S9): 125.5 Revertants/plate
- Average Mean Revertants/plate ([6]; TA100, 5 µg/plate, no S9): 99.0 Revertants/plate
- Mean Revertants/plate ([6]; TA100, 5 µg/plate, no S9, replicates): 98 Revertants/plate and 100 Revertants/plate
- Average Mean Revertants/plate ([6]; TA100, 10 µg/plate, + S9): 102 Revertants/plate
- Average Mean Revertants/plate ([6]; TA100, 10 µg/plate, no S9): 97.0 Revertants/plate
- Mean Revertants/plate ([6]; TA100, 10 µg/plate, no S9, replicates): 94 Revertants/plate and 100 Revertants/plate
- Average Mean Revertants/plate ([6]; TA100, 50 µg/plate, + S9): 71 Revertants/plate
- Average Mean Revertants/plate ([6]; TA100, 50 µg/plate, no S9): 73.0 Revertants/plate
- Mean Revertants/plate ([6]; TA100, 50 µg/plate, no S9, replicates): 79 Revertants/plate and 67 Revertants/plate
- Average Mean Revertants/plate ([6]; TA100, 100 µg/plate, + S9): 43 Revertants/plate
- Average Mean Revertants/plate ([6]; TA100, 100 µg/plate, no S9): 54.0 Revertants/plate
- Mean Revertants/plate ([6]; TA100, 100 µg/plate, no S9, replicates): 55 Revertants/plate and 53 Revertants/plate
- Average Mean Revertants/plate ([6]; TA100, 500 µg/plate, + S9): 19.5 Revertants/plate
- Average Mean Revertants/plate ([6]; TA100, 500 µg/plate, no S9): 35.5 Revertants/plate
- Mean Revertants/plate ([6]; TA100, 500 µg/plate, no S9, replicates): 38 Revertants/plate and 33 Revertants/plate
- Mean Revertants/plate ([6]; TA100, + S9, 1 µg/plate): 107.5
- Mean Revertants/plate ([6]; TA100, + S9, 5 µg/plate): 125.5
- Mean Revertants/plate ([6]; TA100, + S9, 10 µg/plate): 102.0
- Mean Revertants/plate ([6]; TA100, + S9, 50 µg/plate): 71.0
- Mean Revertants/plate ([6]; TA100, + S9, 100 µg/plate): 43.0
- Mean Revertants/plate ([6]; TA100, + S9, 500 µg/plate): 19.5
- Mean Revertants/plate ([6]; TA100, without S9, 1 µg/plate): 112.5
- Mean Revertants/plate ([6]; TA100, without S9, 5 µg/plate): 99.0
- Mean Revertants/plate ([6]; TA100, without S9, 10 µg/plate): 97.0
- Mean Revertants/plate ([6]; TA100, without S9, 50 µg/plate): 73.0
- Mean Revertants/plate ([6]; TA100, without S9, 100 µg/plate): 54.0
- Mean Revertants/plate ([6]; TA100, without S9, 500 µg/plate): 35.5
- inhibition at 10 µM [7]: 29%
- % inhibition [8]: 3%
- % of translation activity ([9]; [MBX-4132] 0.01 uM): 94% and 99%
- % of translation activity ([9]; [MBX-4132] 0.1 uM): 98% and 102%
- % of translation activity ([9]; [MBX-4132] 1 uM): 92% and 103%
- % of translation activity ([9]; [MBX-4132] 2 uM): 86% and 97%
- % of translation activity ([9]; [MBX-4132] 10 uM): 106% and 98%
- % of translation activity ([9]; [MBX-4132] 20 uM): 97% and 96%
- % of translation activity ([9]; [MBX-4132] 50 uM): 93% and 99%
- inhibition of translation in vitro (in words) ([9]; full-length nano-luciferase gene control): did not inhibit translation; also recorded: does not inhibit translation
- inhibition at 10 µM [10]: 4%
- CYP450 inhibitory activity (in words) [11]: no inhibitory activity >50%
- inhibition at 10 µM [12]: -7%
- inhibition at 10 µM [13]: -6%
- inhibition at 10 µM [14]: 35%
- % inhibition [15]: 21%
